The text below walks through data of patent US20250313563A1, “GLYCOGEN SYNTHASE KINASE 3 INHIBITORS AND USES THEREOF” (The Broad Institute, Inc., priority 2022, published 2025).

Test [1] has as its target GSK3α (GST-full length GSK3α) (Homo sapiens (Human), UniProt P49840). Put plainly: GSK3α TR-FRET kinase assay. It counts as biochemical. In a few lines:
(§1)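 Readout: anti-pSer641 Tb antibody/streptavidin-d2 signal after 60 min, expressed as 665/615 ratio and fitted versus log concentration for IC50. Enzyme: 1 nM GST-GSK3 (α or β), compound-preincubated 30 min. Conditions: pH 7.5 Tris buffer with MgCl2, DTT, BSA; ATP at 4 or 2 μM, or 1 mM; 100 min.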
(In general: Time-resolved FRET reads energy transfer from a long-lived donor to a nearby acceptor.)

Test [2] concerns the target GSK3b (GST-full length GSK3b) (Homo sapiens (Human), UniProt P49841). Put plainly: GSK3b TR-FRET kinase assay. It counts as biochemical. In a few lines: as §1
[3] abbreviates: 1 nM GSK3α, 4 μM ATP, 30 minute preincubation, Table 16, read-out: GSK3-A TR-FRET BIOCHEMICAL (TR-FRET), IC50.
Where [4] appears, read: 1 nM GSK3b, 2 μM ATP, 30 minute preincubation, Table 16, read-out: GSK3-B TR-FRET BIOCHEMICAL (TR-FRET), IC50.
Where [5] appears, read: 1 nM GSK3α, 4 μM ATP, 30 minute preincubation, geometric mean, read-out: GSK3-A TR-FRET BIOCHEMICAL (TR-FRET), GMean, IC50.
The mark [6] stands for this setting: 1 nM GSK3b, 2 μM ATP, 30 minute preincubation, geometric mean, read-out: GSK3-B TR-FRET BIOCHEMICAL (TR-FRET), GMean, IC50.
Where [7] appears, read: 1 nM GSK3α, 4 μM ATP, 30 minute preincubation, read-out: GSK3-A TR-FRET BIOCHEMICAL (TR-FRET), IC50.
Setting [8] is: 1 nM GSK3b, 2 μM ATP, 30 minute preincubation, read-out: GSK3-B TR-FRET BIOCHEMICAL (TR-FRET), IC50.
Setting [9] is: 1 nM GSK3α, 4 μM ATP, 30 minute preincubation, Table 16, read-out: GSK3-A TR-FRET BIOCHEMICAL (TR-FRET).
[10] abbreviates: 1 nM GSK3b, 2 μM ATP, 30 minute preincubation, Table 16, read-out: GSK3-B TR-FRET BIOCHEMICAL (TR-FRET).
[11] abbreviates: read-out: GSK3-A (TR-FRET 1 mM ATP), GMean, IC50, 1 mM ATP, geometric mean.
Setting [12] is: read-out: GSK3-B (TR-FRET 1 mM ATP), GMean, IC50, 1 mM ATP, geometric mean.

Read-outs that look alike come from different tables or passages of the source.

Sequence of GSK3α (GST-full length GSK3α) (P49840 whole entry): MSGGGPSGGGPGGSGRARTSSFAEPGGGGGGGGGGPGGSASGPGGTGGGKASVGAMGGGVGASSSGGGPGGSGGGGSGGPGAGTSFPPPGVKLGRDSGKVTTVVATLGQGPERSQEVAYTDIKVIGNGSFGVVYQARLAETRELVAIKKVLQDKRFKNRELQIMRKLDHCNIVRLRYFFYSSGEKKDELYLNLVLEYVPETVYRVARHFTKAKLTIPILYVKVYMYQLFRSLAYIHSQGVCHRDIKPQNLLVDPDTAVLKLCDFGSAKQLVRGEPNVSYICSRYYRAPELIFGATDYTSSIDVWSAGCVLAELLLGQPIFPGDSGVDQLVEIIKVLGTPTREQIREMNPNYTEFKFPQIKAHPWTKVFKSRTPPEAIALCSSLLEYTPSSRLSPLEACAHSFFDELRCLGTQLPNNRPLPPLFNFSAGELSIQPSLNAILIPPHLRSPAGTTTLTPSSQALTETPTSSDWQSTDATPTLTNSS
Sequence of GSK3b (GST-full length GSK3b) (P49841 whole entry): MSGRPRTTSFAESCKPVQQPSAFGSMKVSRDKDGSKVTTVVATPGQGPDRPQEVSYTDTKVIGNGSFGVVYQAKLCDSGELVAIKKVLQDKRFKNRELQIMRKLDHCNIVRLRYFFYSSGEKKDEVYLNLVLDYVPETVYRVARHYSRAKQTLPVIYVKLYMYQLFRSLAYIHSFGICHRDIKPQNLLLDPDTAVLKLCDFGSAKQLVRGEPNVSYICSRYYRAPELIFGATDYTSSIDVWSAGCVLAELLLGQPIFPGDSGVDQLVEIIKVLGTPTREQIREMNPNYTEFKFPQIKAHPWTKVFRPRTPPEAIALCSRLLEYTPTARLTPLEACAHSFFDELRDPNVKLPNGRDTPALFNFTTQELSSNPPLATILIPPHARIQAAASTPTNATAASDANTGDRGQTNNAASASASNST

As to `CCC1(c2cccc(N(C)c3ncccn3)c2)C2=C(CC(C)(C)C2=O)Nc2n[nH]cc21` (centres unmarked) [Compound 952205], the IC50 in test [1] (setting [3]) is 1000 to 5000 nM; in test [2] (setting [4]), greater than 5000 nM.
As to `CC[C@]1(c2cccc(-c3cnn(CCOC)c3)c2)C2=C(CC(C)(C)NC2=O)Nc2n[nH]cc21` [Compound 949105], the IC50 in test [1] (setting [5]) was no more than 100 nM; in test [2] (setting [6]) it was 100 to 1000 nM.
On to `CC1(C)CC(=O)C2=C(C1)Nc1n[nH]cc1C21COC2(CN(C(=O)C3CCC4(CC3)COC4)C2)C1` (centres unmarked) [Compound 944075], for which the IC50 in test [1] (setting [7]) is no more than 100 nM; in test [2] (setting [8]), 100 to 1000 nM.
In the case of `CCC1(c2cccc(-c3ccnc(C)c3F)c2)C2=C(CC(C)(C)NC2=O)Nc2n[nH]c(C)c21` (centres unmarked) [Compound 947563], the IC50 in test [1] (setting [5]) was no more than 100 nM; in test [2] (setting [6]) it was 100 to 1000 nM.
For `CCC1(c2cccc(-c3ccnc(C)c3)c2)C2=C(CC(C)(C)NC2=O)Nc2n[nH]c(F)c21` (centres unmarked) [Compound 949001], in that order: 100 to 1000 nM and 100 to 1000 nM.
Consider `CC1(C)CC(=O)C2=C(C1)Nc1n[nH]cc1C21COC2(CN(C(=O)c3ccccc3)C2)C1` (centres unmarked) [Compound 917231], for which the IC50 in test [1] (setting [7]) and in test [2] (setting [8]) was no more than 100 nM each time.
In the case of `CC1(C)CC(=O)C2=C(C1)Nc1n[nH]cc1C21CCN(S(=O)(=O)c2ccc(F)c(Cl)c2)CC1` [Compound 948117], the IC50 in test [1] (setting [9]) and in test [2] (setting [10]) was no more than 100 nM in each case.
In the case of `CC[C@]1(c2cccc(C(F)(F)F)c2)C2=C(C[C@@]3(CCN(C)C3=O)CC2=O)Nc2n[nH]cc21` [Compound 950325], the IC50 in test [1] (setting [9]) and in test [2] (setting [10]) was greater than 5000 nM throughout.
Turning to `CCC1(c2cccc(C(F)(F)F)c2)C2=C(Nc3n[nH]cc31)C(C)CNC2=O` (centres unmarked) [Compound 945382], the IC50 in test [1] (setting [7]) is no more than 100 nM; in test [2] (setting [8]) it was 100 to 1000 nM.
Regarding `CCC1(c2cccc(-c3cn(C)nc3C)c2)C2=C(CC(C)(C)C2=O)Nc2n[nH]cc21` (centres unmarked) [Compound 951702], the IC50 in test [1] (setting [3]) was no more than 100 nM; in test [1] (setting [11]) it was 100 to 1000 nM; in test [2] (setting [4]) it was 100 to 1000 nM; in test [2] (setting [12]), greater than 5000 nM.
`O=C1C2=C(Nc3n[nH]cc3C23CCOCC3)[C@@H]2CC[C@H]1C2` [Compound 912081]: the IC50 in test [1] (setting [9]) is 100 to 1000 nM; in test [2] (setting [10]) it was 1000 to 5000 nM.
Turning to `CC1(C)CC(=O)C2=C(C1)Nc1n[nH]cc1C21CCOCC1` [Compound 826648, 7′,7′-dimethyl-2,2′,3,5,6,7′,8′,9′-octahydrospiro[pyran-4,4′-pyrazolo[3,4-b]quinolin]-5′ (6′H)-one], the IC50 in test [1] (setting [9]) and in test [2] (setting [10]) was 100 to 1000 nM each time.
In the case of `O=C1CC2(CCC2)CC2=C1C1(CCOCC1)c1c[nH]nc1N2` [Compound 909208], the IC50 in test [1] (setting [9]) is no more than 100 nM; in test [2] (setting [10]), 100 to 1000 nM.
For `CCC1(c2cccc(S(=O)(=O)C3COC3)c2)C2=C(CC(C)(C)CC2=O)Nc2n[nH]cc21` (centres unmarked) [Compound 945998] the same measures were no more than 100 nM and no more than 100 nM.
For `CC1(C)CCC2(CC1)C1=C(CC(C)(C)CC1=O)Nc1n[nH]cc12` [Compound 884107], in that order: no more than 100 nM and 100 to 1000 nM.
For `C[C@@H]1CC[C@@]2(C1)C1=C(CC(C)(C)CC1=O)Nc1n[nH]cc12` [Compound 883841], in that order: 100 to 1000 nM and 100 to 1000 nM.
On to `CC[C@@]1(c2cccc(-c3c(C)ccc4c(C)cccc34)c2)C2=C(CC(C)(C)NC2=O)Nc2n[nH]c(F)c21` [Compound 949392], for which the IC50 in test [1] (setting [3]) is 1000 to 5000 nM; in test [2] (setting [4]) it was greater than 5000 nM.
Take `CC[C@@]1(c2cccc(-c3ccnc4c3CCC4)c2)C2=C(CC(C)(C)NC2=O)Nc2n[nH]cc21` [Compound 948313]: the IC50 in test [1] (setting [5]) was no more than 100 nM; in test [1] (setting [11]) it was 100 to 1000 nM; in test [2] (setting [6]), no more than 100 nM; in test [2] (setting [12]), 1000 to 5000 nM.
Turning to `CC1(C)CC(=O)C2=C(C1)Nc1n[nH]cc1C21CN(S(=O)(=O)C2CCCCC2)C1` [Compound 918275], the IC50 in test [1] (setting [9]) and in test [2] (setting [10]) was no more than 100 nM in each case.
Turning to `Cc1csc(S(=O)(=O)N2CCC3(CC2)C2=C(CC(C)(C)CC2=O)Nc2n[nH]cc23)n1` [Compound 947897], the IC50 in test [1] (setting [9]) and in test [2] (setting [10]) was no more than 100 nM throughout.
